Laboratory results reported in patent US8759499B2, “Lipids for transfection of Eukaryotic cells” (Molecular Transfer, Inc., priority 2005, dated 2014).
Ends that are not written are not given here.

Test system: CHO-K1, NIH3T3, A549, Cos-7 and BE(2)C
Test: Transfection with β-galactosidase reporter plasmid pCMV•SPORT-β-gal, "before" and "after" peptide protocols, β-gal activity (ONPG, OD 405)
Format: cell-based
Settings: FIG. 1-5
Protocol: Transfection of CHO-K1, NIH3T3, A549, Cos-7 and BE(2)C with β-galactosidase reporter plasmid pCMV•SPORT-β-gal was carried out as follows:
Cells were plated in a 96-well plates with 100 μl of media containing 10% fetal calf serum the day before transfection such that a desired confluency (70%-95%) was achieved. The following day a transfection agent that includes a liposomal composition of the lipid DMTS (Dimyrstyl-tetrahydroxy-spermine) and DOPE (2:1 DMTS:DOPE) and DNA were mixed in Opti-MEM to form DNA/lipid complexes. Complexes were formed by adding various amounts of lipids (0.1 to 0.35 μl) to 100 μl of Opti-MEM. DNA (100 ng) was added to 100 μl Opti-MEM. The DNA and lipid solutions were then mixed to form DNA lipid complexes. The complexes were incubated for at least 15 minutes after which added to the DNA lipid complexes, was 20 μl of various amounts of a peptide having the sequence of a Prototypical Avian reovirus fusogenic peptide provided herein, as follows:
and incubated for 15 minutes to form a DNA/lipid/peptide complex. […] Total activity was determined by reading the OD at 405 using Bio-Rad Benchmark Microplate Spectrophotometer. […]
were added to the DNA mixture and incubated for 15 minutes. […] Total activity was determined by reading the OD at 405 using Bio-Rad Benchmark Microplate Spectrophotometer.

Sequence: RMPPGSCNGATAVFGNVHKKKKKKKKKKKKKKKK [peptide, Prototypical Avian reovirus fusogenic peptide with 16 lysine residues]
- amount of lipid required to enhance transfection (DMTS:DOPE 2:1 liposomes plus peptide, before or after protocol): reduced
- effect of adding the peptide on transfection (DMTS:DOPE 2:1 liposomes, peptide added to DNA before lipid, or to DNA/lipid complex): enhancement of transfection
